Drawing on patent publication US20210300940A1 (Merck Patent GmbH, priority 2018, published 2021), this text covers IC50 for 21 compounds.

Each structure is given as a SMILES string. Where a name gives a salt, the structure may show the parent alone. Where only a bound is given, the exact number is not on record here.

One assay has as its target T1, TLR7 (Homo sapiens, UniProt Q9NYK1).
T1 construct: expressed in transfected cells; host or cells: HEK/293 cells carrying TLR7 and an NF-kB luciferase reporter
T1 sequence (Q9NYK1 27-1049): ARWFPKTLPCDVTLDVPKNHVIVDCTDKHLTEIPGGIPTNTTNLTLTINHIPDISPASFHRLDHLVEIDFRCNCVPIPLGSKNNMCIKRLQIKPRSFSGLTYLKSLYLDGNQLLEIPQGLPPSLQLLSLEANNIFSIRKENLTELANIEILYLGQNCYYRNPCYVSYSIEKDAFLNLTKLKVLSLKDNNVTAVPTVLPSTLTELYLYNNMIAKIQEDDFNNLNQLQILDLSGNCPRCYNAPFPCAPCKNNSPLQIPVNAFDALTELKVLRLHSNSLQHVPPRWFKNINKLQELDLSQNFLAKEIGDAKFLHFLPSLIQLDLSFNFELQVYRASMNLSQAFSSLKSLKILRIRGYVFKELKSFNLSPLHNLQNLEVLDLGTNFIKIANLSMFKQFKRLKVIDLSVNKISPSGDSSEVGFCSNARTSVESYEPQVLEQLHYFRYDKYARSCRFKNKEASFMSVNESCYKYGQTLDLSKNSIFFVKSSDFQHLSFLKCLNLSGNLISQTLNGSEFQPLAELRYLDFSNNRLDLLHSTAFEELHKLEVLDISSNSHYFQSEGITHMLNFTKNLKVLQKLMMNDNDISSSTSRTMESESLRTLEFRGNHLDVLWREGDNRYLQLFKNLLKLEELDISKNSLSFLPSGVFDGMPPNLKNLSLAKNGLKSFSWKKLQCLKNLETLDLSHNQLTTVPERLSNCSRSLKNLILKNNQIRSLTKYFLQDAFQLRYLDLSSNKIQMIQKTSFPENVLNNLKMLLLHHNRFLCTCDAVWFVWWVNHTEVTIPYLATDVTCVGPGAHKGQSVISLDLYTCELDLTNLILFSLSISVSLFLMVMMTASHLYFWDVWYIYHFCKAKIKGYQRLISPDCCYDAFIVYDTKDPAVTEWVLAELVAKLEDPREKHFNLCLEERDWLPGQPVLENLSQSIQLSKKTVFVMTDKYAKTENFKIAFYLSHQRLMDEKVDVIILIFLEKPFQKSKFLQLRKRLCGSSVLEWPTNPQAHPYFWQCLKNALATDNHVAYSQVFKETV
The experiment in a line: HEK/293 TLR7 Cell Assay. The class given is cell-based. The note with it: TLR7/NFKb HEK cells, R848 agonist 10 uM final concentration, Steady-Glo readout; read-out: TLR7 potency. The method in brief: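 TLR7/NF-κB reporter HEK293 cells, 5000/well, cultured 24 h, then preincubated 30 min with compound before R848 agonist (10 uM final). After 5 h stimulation, Steady-Glo luciferase luminescence read.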

For the next assay, the target named is T2, TLR8 (Homo sapiens, UniProt Q9NR97).
T2 construct: expressed in transfected cells; host or cells: HEK/293 reporter cells (NF-kB luciferase)
T2 sequence (Q9NR97 27-1041): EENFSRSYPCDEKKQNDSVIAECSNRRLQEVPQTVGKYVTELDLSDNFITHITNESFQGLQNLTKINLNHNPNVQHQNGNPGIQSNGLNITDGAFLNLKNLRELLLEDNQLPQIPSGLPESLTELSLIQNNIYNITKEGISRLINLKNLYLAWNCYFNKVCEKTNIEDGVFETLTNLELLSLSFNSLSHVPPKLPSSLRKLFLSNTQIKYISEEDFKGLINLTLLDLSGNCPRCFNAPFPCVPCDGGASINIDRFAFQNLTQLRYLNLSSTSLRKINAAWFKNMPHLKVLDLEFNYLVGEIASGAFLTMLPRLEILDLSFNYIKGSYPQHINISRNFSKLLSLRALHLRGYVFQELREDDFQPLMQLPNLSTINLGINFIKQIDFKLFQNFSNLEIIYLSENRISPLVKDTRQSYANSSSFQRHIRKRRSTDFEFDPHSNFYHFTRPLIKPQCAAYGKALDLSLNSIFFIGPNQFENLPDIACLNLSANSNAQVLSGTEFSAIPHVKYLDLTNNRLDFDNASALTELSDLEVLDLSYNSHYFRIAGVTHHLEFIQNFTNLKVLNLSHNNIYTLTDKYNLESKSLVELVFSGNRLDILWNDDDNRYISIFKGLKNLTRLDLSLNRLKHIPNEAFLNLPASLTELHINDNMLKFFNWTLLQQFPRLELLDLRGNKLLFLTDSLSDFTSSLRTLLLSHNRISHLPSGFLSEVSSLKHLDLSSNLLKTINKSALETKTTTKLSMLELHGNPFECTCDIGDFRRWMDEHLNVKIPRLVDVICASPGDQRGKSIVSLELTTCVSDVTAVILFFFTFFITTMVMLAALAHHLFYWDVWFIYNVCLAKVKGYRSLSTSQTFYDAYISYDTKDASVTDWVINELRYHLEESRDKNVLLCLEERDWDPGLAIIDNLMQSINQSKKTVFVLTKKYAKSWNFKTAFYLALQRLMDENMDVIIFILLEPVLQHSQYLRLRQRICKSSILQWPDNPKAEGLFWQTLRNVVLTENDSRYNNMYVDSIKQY
The experiment in a line: HEK/293 TLR8 Cell Assay. The class given is cell-based. The note with it: HEK cells, R848 agonist 30 uM final concentration, Steady-Glo readout; read-out: TLR8 potency.

For `C[C@@H]1CN(c2cnc(C(F)(F)F)c3ncccc23)C[C@H](CNC[C@H]2CN(C)CCO2)O1` (single isomer, unassigned) [Example 385], the values for the IC50 at TLR7 and on TLR8 were more than 150 nM and less than 75 nM, respectively.
The like results for `C[C@@H]1CN(c2cnc(C(F)(F)F)c3ncccc23)C[C@H](CNC[C@@H]2CN(C)CCO2)O1` (single isomer, unassigned) [Example 386] were, in that order, more than 150 nM and less than 75 nM.
For `C[C@H]1C[C@@H](OCCN2CCCCC2)CN(c2ccc(C#N)c3nccnc23)C1` [Example 5, 8-[(3S,5R)-3-methyl-5-[2-(piperidin-1-yl)ethoxy]piperidin-1-yl]quinoxaline-5-carbonitrile] the same measures were less than 75 nM and less than 75 nM.
`CCN(CC)CCO[C@@H]1C[C@H](C)CN(c2ccc(C#N)c3nccnc23)C1` [Example 6, 8-[(3R,5S)-3-[2-(diethylamino)ethoxy]-5-methylpiperidin-1-yl]quinoxaline-5-carbonitrile]: the IC50 on TLR7 and on TLR8 was less than 75 nM throughout.
With `C[C@H]1C[C@@H](N)CN(c2cnc(C(F)(F)F)c3ncccc23)C1` [Example 7, (3R,5S)-5-Methyl-1-(8-trifluoromethyl-[1,7]naphthyridin-5-yl)-piperidin-3-ylamine hydrochloride], the IC50 on TLR7 and at TLR8 was less than 75 nM throughout.
As for `C[C@H]1C[C@@H](N)CN(c2cnc(C#N)c3ncccc23)C1` [Example 8, 5-((3R,5S)-3-Amino-5-methyl-piperidin-1-yl)-[1,7]naphthyridine-8-carbonitrile hydrochloride], the IC50 at TLR7 and at TLR8 was less than 75 nM each time.
For the compound `N#Cc1ncc(N2C[C@H](N)C[C@H](C(F)(F)F)C2)c2cccnc12` [Example 9, 5-((3R,5S)-3-Amino-5-trifluoromethyl-piperidin-1-yl)-[1,7]naphthyridine-8-carbonitrile], the IC50 was less than 75 nM at TLR7 and 75 to 150 nM on TLR8.
Turning to `CCOc1ncc(N2C[C@H](N)C[C@H](C(F)(F)F)C2)c2cccnc12` [Example 10, (3R,5S)-1-(8-Ethoxy-[1,7]naphthyridin-5-yl)-5-trifluoromethyl-piperidin-3-ylamine], the IC50 at TLR7 and at TLR8 was more than 150 nM each time.
Consider `C[C@H]1C[C@@H](NCC2(O)CCOCC2)CN(c2cnc(C(F)(F)F)c3ncccc23)C1` [Example 11, 4-{[(3R,5S)-5-Methyl-1-(8-trifluoromethyl-[1,7]naphthyridin-5-yl)-piperidin-3-ylamino]-methyl}-tetrahydro-pyran-4-ol], for which the IC50 on TLR7 and at TLR8 was more than 150 nM throughout.
Regarding `C[C@H]1C[C@@H](NC2CS(=O)(=O)C2)CN(c2ccc(C#N)c3nccnc23)C1` [Example 12, 8-[(3R,5S)-3-(1,1-Dioxo-1lambda6-thietan-3-ylamino)-5-methyl-piperidin-1-yl]-quinoxaline-5-carbonitrile], the IC50 was more than 150 nM on TLR7 and 75 to 150 nM on TLR8.
For `C[C@H]1C[C@@H](NC2CS(=O)(=O)C2)CN(c2ccc(C(F)(F)F)c3ncccc23)C1` [Example 13, (1,1-Dioxo-1lambda6-thietan-3-yl)-[(3R,5S)-5-methyl-1-(8-trifluoromethyl-quinolin-5-yl)-piperidin-3-yl]-amine], the IC50 at TLR7 and at TLR8 was less than 75 nM in each case.
As to `C[C@H]1C[C@@H](NCC2(O)CCOCC2)CN(c2ccc(C#N)c3nccnc23)C1` [Example 14, 8-{(3R,5S)-3-[(4-Hydroxy-tetrahydro-pyran-4-ylmethyl)-amino]-5-methyl-piperidin-1-yl}-quinoxaline-5-carbonitrile], the IC50 at TLR7 and on TLR8 was less than 75 nM in each case.
For the compound `C[C@H]1C[C@@H](NCC(C)(F)C(=O)O)CN(c2ccc(C#N)c3nccnc23)C1` (stereo partly drawn) [Example 15, 3-[(3R,5S)-1-(8-Cyano-quinoxalin-5-yl)-5-methyl-piperidin-3-ylamino]-2-fluoro-2-methyl-propionic acid], the IC50 at TLR7 and on TLR8 was less than 75 nM each time.
On to `C[C@H]1C[C@@H](NCC(C)(C)O)CN(c2ccc(C#N)c3nccnc23)C1` [Example 16, 8-[(3R,5S)-3-(2-Hydroxy-2-methyl-propylamino)-5-methyl-piperidin-1-yl]-quinoxaline-5-carbonitrile formic acid], for which the IC50 at TLR7 and at TLR8 was less than 75 nM each time.
Regarding `C[C@H]1C[C@@H](NCC(C)(C)O)CN(c2ccc(C(F)(F)F)c3ncccc23)C1` [Example 17, 2-Methyl-1-[(3R,5S)-5-methyl-1-(8-trifluoromethyl-quinolin-5-yl)-piperidin-3-ylamino]-propan-2-ol], the IC50 on TLR7 and on TLR8 was less than 75 nM each time.
As for `C[C@H]1C[C@@H](NCC(=O)N2CCOCC2)CN(c2ccc(C(F)(F)F)c3ncccc23)C1` [Example 18, 2-{[(3R,5S)-5-methyl-1-[8-(trifluoromethyl)quinolin-5-yl]piperidin-3-yl]amino}-1-(morpholin-4-yl)ethan-1-one], the IC50 at TLR7 and on TLR8 was less than 75 nM in each case.
Consider `C[C@H]1C[C@@H](NCCNS(N)(=O)=O)CN(c2ccc(C(F)(F)F)c3ncccc23)C1` [Example 19], for which the IC50 on TLR7 is 75 to 150 nM; on TLR8, less than 75 nM.
For `C[C@H]1C[C@@H](NCCNS(C)(=O)=O)CN(c2ccc(C(F)(F)F)c3ncccc23)C1` [Example 20, N-(2-{[(3R,5S)-5-methyl-1-[8-(trifluoromethyl)quinolin-5-yl]piperidin-3-yl]amino}ethyl)methanesulfonamide] the same measures were less than 75 nM and less than 75 nM.
As for `C[C@H]1C[C@@H](NCCCS(C)(=O)=O)CN(c2ccc(C#N)c3nccnc23)C1` [Example 21, 8-[(3R,5S)-3-[(3-methanesulfonylpropyl)amino]-5-methylpiperidin-1-yl]quinoxaline-5-carbonitrile methanesulfonamide], the IC50 at TLR7 and on TLR8 was less than 75 nM each time.
`C[C@H]1C[C@@H](NCCC(N)=O)CN(c2ccc(C(F)(F)F)c3nccnc23)C1` [Example 22, 3-[(3R,5S)-5-Methyl-1-(8-trifluoromethyl-quinoxalin-5-yl)-piperidin-3-ylamino]-propionamide]: the IC50 at TLR7 and on TLR8 was less than 75 nM each time.
With `C[C@H]1C[C@@H](NCCNS(C)(=O)=O)CN(c2ccc(C(F)(F)F)c3nccnc23)C1` [Example 23, N-{2-[(3R,5S)-5-Methyl-1-(8-trifluoromethyl-quinoxalin-5-yl)-piperidin-3-ylamino]-ethyl}-methanesulfonamide], the IC50 on TLR7 and at TLR8 was less than 75 nM in each case.
